The values that follow come from patent US12006330B2, “Substituted macrocyclic compounds and related methods of treatment” (Alkermes, Inc., priority 2020, dated 2024).

In general, EC50 refers to the concentration giving half of the maximal effect. A high value points to a less potent agent.

The assay deals with T1, human orexin-2 receptor (OX2R) (Homo sapiens, UniProt O43614).
T1 construct: expressed in transfected cells
T1 sequence (O43614 1-444): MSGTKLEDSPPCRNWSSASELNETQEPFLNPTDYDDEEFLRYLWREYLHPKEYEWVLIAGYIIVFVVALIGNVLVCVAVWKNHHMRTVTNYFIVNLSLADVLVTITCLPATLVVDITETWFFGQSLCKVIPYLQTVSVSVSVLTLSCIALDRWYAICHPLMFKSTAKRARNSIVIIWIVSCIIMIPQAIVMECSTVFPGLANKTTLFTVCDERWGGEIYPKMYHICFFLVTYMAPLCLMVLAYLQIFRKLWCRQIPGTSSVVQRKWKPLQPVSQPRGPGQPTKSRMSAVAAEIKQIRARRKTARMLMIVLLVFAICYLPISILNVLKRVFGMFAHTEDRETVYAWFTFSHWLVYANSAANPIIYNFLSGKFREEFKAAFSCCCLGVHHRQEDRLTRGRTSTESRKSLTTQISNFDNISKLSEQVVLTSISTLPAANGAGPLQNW
The experiment in a line: Human OX2R IP1 assay. It is filed as cell-based. The following applies: T-Rex CHO cells stably overexpressing human OX2R; IP1 accumulation; 1 hr at 37 degrees C; mean EC50. Here is the method: T-Rex CHO cells stably overexpressing the human orexin-2 receptor (OX2R) were induced overnight with 1 μg/mL of doxycycline in a T225 flask. 24 hours post induction, cells were lifted with accutase and plated into a 384-well proxy plate at 30,000 cells/well. Cells were then treated with different test compounds in 1× stimulation buffer containing 10 mM Hepes, 1 mM CaCl2), 0.5 mM MgCl2, 4.2 mM KCl, 146 mM NaCl, 5.5 mM glucose, and 50 mM LiCl, pH 7.4, for 1 hr at 37 degrees C. Following incubation, the reaction was terminated by the addition of detection mix, which is composed of IP1-d2 and anti-IP1-cryptate diluted in lysis buffer as well as 1× stimulation buffer. The plates were allowed to incubate for 1 hour at room temperature and were then read in the EnVision® multimode plate reader, measuring inositol phosphate levels.
Cisbio IP1 is a cell-based functional assay quantifying the accumulation of inositol monophosphate (IP), a metabolite released as a result of orexin 2 receptor activation through the phospholipase C-Gq signaling pathway. This is a competitive immunoassay in which the IP1 produced by the cells upon receptor activation competes with the IP1 analog coupled to the d2 fluorophore (acceptor) for binding to an anti-IP1 monoclonal antibody labeled with Eu cryptate (donor). The measured HTRF-FRET based signal is inversely proportional to the IP1 concentration produced.
The EC50 values reported in Table 2 were obtained according to the human OX2R IP1 assay described above. Data are the mean EC50 values S.E.M. Reference Compound A is methyl (2R,3S)-3-((methylsulfonyl)amino)-2-(((cis-4-phenylcyclohexyl)oxy)methyl)-piperidine-1-carboxylate (Example 5 of PCT publication No. WO2017/135306). Reference Compound B is N-((2S,3S)-1-(2-hydroxy-2-methylpropanoyl)-2-((2,3′,5′-trifluorobiphenyl-3-yl)methyl)pyrrolidin-3-yl)methanesulfonamide (Example 483 of PCT publication No. WO2019/027058).
`O=C1COc2ccccc2[C@H]2CC[C@H](CC2)OC[C@H]2[C@@H](NS(=O)(=O)C3CC3)CCCN12` (stereo in doubt) [Compound 1] yielded an EC50 below 10 nM. Under `Cc1cccc2c1[C@H]1CC[C@H](CC1)OC[C@H]1[C@@H](NS(C)(=O)=O)CCCN1C(=O)CO2` (stereo in doubt) [Compound 2] stands below 10 nM; under `CC(C)S(=O)(=O)N[C@H]1CCCN2C(=O)COc3ccccc3[C@H]3CC[C@H](CC3)OC[C@@H]12` (stereo in doubt) [Compound 3], below 10 nM. Under `Cc1cccc2c1[C@H]1CC[C@H](CC1)OC[C@H]1[C@@H](NS(=O)(=O)C3CC3)CCCN1C(=O)CO2` (stereo in doubt) [Compound 4] stands below 10 nM; under `C=CS(=O)(=O)N[C@H]1CCCN2C(=O)COc3ccccc3[C@H]3CC[C@H](CC3)OC[C@@H]12` (stereo in doubt) [Compound 5], below 10 nM. The result for `O=C1COc2ccccc2[C@H]2CC[C@H](CC2)OC[C@H]2[C@@H](NS(=O)(=O)CF)CCCN12` (stereo in doubt) [Compound 6] reads below 10 nM; that for `O=C1COc2ccccc2[C@H]2CC[C@H](CC2)OC[C@H]2[C@@H](NS(=O)(=O)C(F)F)CCCN12` (stereo in doubt) [Compound 7], below 10 nM; that for `CC1(S(=O)(=O)N[C@H]2CCCN3C(=O)COc4ccccc4[C@H]4CC[C@H](CC4)OC[C@@H]23)CC1` (stereo in doubt) [Compound 8], below 10 nM.

Turning to `Cc1cccc2c1[C@H]1CC[C@H](CC1)OC[C@H]1[C@@H](NS(=O)(=O)C(C)C)CCCN1C(=O)CO2` (stereo in doubt) [Compound 9], the EC50 is below 10 nM.

Turning to `Cc1ccnc2c1[C@H]1CC[C@H](CC1)OC[C@H]1[C@@H](NS(=O)(=O)C(C)C)CCCN1C(=O)CO2` (stereo in doubt) [Compound 10], the EC50 is below 10 nM. For `O=C1COc2ccccc2[C@H]2CC[C@H](CC2)OC[C@H]2[C@@H](NS(=O)(=O)C(F)(F)F)CCCN12` (stereo in doubt) [Compound 11], the EC50 is below 10 nM. Under `Cc1ccnc2c1[C@H]1CC[C@H](CC1)OC[C@H]1[C@@H](NS(C)(=O)=O)CCCN1C(=O)CO2` (stereo in doubt) [Compound 12] stands below 10 nM; under `Cc1ccc2c(c1)[C@H]1CC[C@H](CC1)OC[C@H]1[C@@H](NS(=O)(=O)C3CC3)CCCN1C(=O)CO2` (stereo in doubt) [Compound 13], below 10 nM; under `O=C1COc2ncccc2[C@H]2CC[C@H](CC2)OC[C@H]2[C@@H](NS(=O)(=O)C3CC3)CCCN12` (stereo in doubt) [Compound 14], below 10 nM. The result for `CC(C)S(=O)(=O)N[C@H]1CCCN2C(=O)COc3ncccc3[C@H]3CC[C@H](CC3)OC[C@@H]12` (stereo in doubt) [Compound 15] reads below 10 nM. Under `O=C1COc2ccc(Cl)cc2[C@H]2CC[C@H](CC2)OC[C@H]2[C@@H](NS(=O)(=O)C3CC3)CCCN12` (stereo in doubt) [Compound 16] stands below 10 nM; under `Cc1ccc2c(c1)[C@H]1CC[C@H](CC1)OC[C@H]1[C@@H](NS(C)(=O)=O)CCCN1C(=O)CO2` (stereo in doubt) [Compound 17], below 10 nM. Compound `Cc1ccc2c(c1)[C@H]1CC[C@H](CC1)OC[C@H]1[C@@H](NS(=O)(=O)C(C)C)CCCN1C(=O)CO2` (stereo in doubt) [Compound 18] came in with a 50% effective concentration (EC50) below 10 nM. In turn, `O=C1COc2ccccc2[C@H]2CC[C@H](CC2)OC[C@H]2[C@@H](NS(=O)(=O)CCO)CCCN12` (stereo in doubt) [Compound 19] came in with an EC50 below 10 nM. The result for `CC(C)S(=O)(=O)N[C@H]1CCCN2C(=O)COc3ccc(Cl)cc3[C@H]3CC[C@H](CC3)OC[C@@H]12` (stereo in doubt) [Compound 26] reads below 10 nM; that for `Cc1c(Cl)ccc2c1[C@H]1CC[C@H](CC1)OC[C@H]1[C@@H](NS(=O)(=O)C(C)C)CCCN1C(=O)CO2` (stereo in doubt) [Compound 28], below 10 nM; that for `Cc1c(Cl)ccc2c1[C@H]1CC[C@H](CC1)OC[C@H]1[C@@H](NS(C)(=O)=O)CCCN1C(=O)CO2` (stereo in doubt) [Compound 31], below 10 nM. The result for `O=C1COc2ccccc2[C@H]2CC[C@H](CC2)OC[C@H]2[C@@H](NS(=O)(=O)C3CCCC3)CCCN12` (stereo in doubt) [Compound 33] reads below 10 nM.

`Cc1cnc2c(c1)[C@H]1CC[C@H](CC1)OC[C@H]1[C@@H](NS(=O)(=O)C(C)C)CCCN1C(=O)CO2` (stereo in doubt) [Compound 34] returned an EC50 below 10 nM. Under `CC(C)S(=O)(=O)N[C@H]1CCCN2C(=O)COc3ncc(Cl)cc3[C@H]3CC[C@H](CC3)OC[C@@H]12` (stereo in doubt) [Compound 35] stands below 10 nM; under `Cc1cccc2c1OCC(=O)N1CCC[C@H](NS(C)(=O)=O)[C@@H]1CO[C@H]1CC[C@@H]2CC1` (stereo in doubt) [Compound 37], below 10 nM; under `CN(C)CCS(=O)(=O)N[C@H]1CCCN2C(=O)COc3ccccc3[C@H]3CC[C@H](CC3)OC[C@@H]12` (stereo in doubt) [Compound 39], below 10 nM.

Compound `Cc1ccc2c(c1)OCC(=O)N1CCC[C@H](NS(C)(=O)=O)[C@@H]1CO[C@H]1CC[C@@H]2CC1` (stereo in doubt) [Compound 40] yielded an EC50 of 10 to 1000 nM. `O=C1COc2ccccc2[C@H]2CC[C@H](CC2)OC[C@H]2[C@@H](NS(=O)(=O)C3CCC3)CCCN12` (stereo in doubt) [Compound 42] came in with an EC50 below 10 nM. Under `O=C1COc2ccccc2[C@H]2CC[C@H](CC2)OC[C@H]2[C@@H](NS(=O)(=O)CC3CCC3)CCCN12` (stereo in doubt) [Compound 43] stands 10 to 1000 nM; under `CC(C)(C)S(=O)(=O)N[C@H]1CCCN2C(=O)COc3ccccc3[C@H]3CC[C@H](CC3)OC[C@@H]12` (stereo in doubt) [Compound 44], 10 to 1000 nM. Under `CS(=O)(=O)N[C@H]1CCCN2C(=O)COc3ccc(C#N)cc3[C@H]3CC[C@H](CC3)OC[C@@H]12` (stereo in doubt) [Compound 46] stands 10 to 1000 nM. As for `CS(=O)(=O)N[C@H]1CCCN2C(=O)COc3cc(C#N)ccc3[C@H]3CC[C@H](CC3)OC[C@@H]12` (stereo in doubt) [Compound 47], the EC50 is 10 to 1000 nM. Under `O=C1COc2ccccc2[C@H]2CC[C@H](CC2)OC[C@H]2[C@@H](NS(=O)(=O)CC3CC3)CCCN12` (stereo in doubt) [Compound 48] stands below 10 nM; under `Cc1cccc2c1OCCN1CCC[C@H](NS(C)(=O)=O)[C@@H]1CO[C@H]1CC[C@@H]2CC1` (stereo in doubt) [Compound 49], above 1000 nM. The result for `Cc1ccc2c(c1)OCCN1CCC[C@H](NS(C)(=O)=O)[C@@H]1CO[C@H]1CC[C@@H]2CC1` (stereo in doubt) [Compound 50] reads above 1000 nM. Under `O=S(=O)(N[C@H]1CCCN2CCOc3ccccc3[C@H]3CC[C@H](CC3)OC[C@@H]12)C1CC1` (stereo in doubt) [Compound 51] stands 10 to 1000 nM; under `CC(C)S(=O)(=O)N[C@H]1CCCN2CCOc3ccccc3[C@H]3CC[C@H](CC3)OC[C@@H]12` (stereo in doubt) [Compound 52], above 1000 nM. The compound `CCS(=O)(=O)N[C@H]1CCCN2CCOc3ccccc3[C@H]3CC[C@H](CC3)OC[C@@H]12` (stereo in doubt) [Compound 53] returned an EC50 above 1000 nM.
